In ChEMBL document CHEMBL5465560, “Selectivity Literature for EUbOPEN Chemogenomic Library” (2024):
Values belong to the compound of their own block, whether it stands above or below them.

How the values were obtained:
[1] = biological target: Cyclin-dependent kinase 2/cyclin A (Homo sapiens) (UniProt P24941+P20248+P78396); test: Selectivity interaction (Kinase panel (Z-LYTE Assay)) EUB0001632a CDK2; format: protein-complex assay; conditions: at 10 µM
[2] = tested on: Proto-oncogene tyrosine-protein kinase receptor Ret (Homo sapiens), P07949 [Y791F]; test: (§1) Selectivity interaction (Kinase panel (Z-LYTE Assay)) EUB0001632a RET; conditions: at 10 µM
[3] = tested on: Proto-oncogene tyrosine-protein kinase receptor Ret (Homo sapiens), P07949 [S891A]; test: as §1; conditions: at 10 µM
[4] = tested on: Proto-oncogene tyrosine-protein kinase receptor Ret (Homo sapiens), P07949 [V804L]; test: as §1; conditions: at 10 µM
[5] = biological target: Proto-oncogene tyrosine-protein kinase receptor Ret (Homo sapiens, UniProt P07949); test: as §1; conditions: at 10 µM
[6] = biological target: Mitogen-activated protein kinase 4 (Homo sapiens) (UniProt P31152); conditions: at 10 µM
[7] = biological target: Insulin-like growth factor 1 receptor (Homo sapiens, UniProt P08069); conditions: at 10 µM
[8] = biological target: Serine/threonine-protein kinase/endoribonuclease IRE1 (Homo sapiens) (UniProt O75460); test: Selectivity interaction (KinomeScan (DiscoverX)) EUB0000229b ERN1; conditions: at 10 µM
[9] = biological target: Interferon-induced, double-stranded RNA-activated protein kinase (Homo sapiens) (UniProt P19525); test: Selectivity interaction (KinomeScan (DiscoverX)) EUB0001079a EIF2AK2; conditions: at 1 µM
[10] = biological target: T1, G protein-coupled receptor kinase 3 (Homo sapiens) (UniProt P35626); test: Selectivity interaction (ProQinase) EUB0000171b ADRBK2
T1 sequence (whole entry): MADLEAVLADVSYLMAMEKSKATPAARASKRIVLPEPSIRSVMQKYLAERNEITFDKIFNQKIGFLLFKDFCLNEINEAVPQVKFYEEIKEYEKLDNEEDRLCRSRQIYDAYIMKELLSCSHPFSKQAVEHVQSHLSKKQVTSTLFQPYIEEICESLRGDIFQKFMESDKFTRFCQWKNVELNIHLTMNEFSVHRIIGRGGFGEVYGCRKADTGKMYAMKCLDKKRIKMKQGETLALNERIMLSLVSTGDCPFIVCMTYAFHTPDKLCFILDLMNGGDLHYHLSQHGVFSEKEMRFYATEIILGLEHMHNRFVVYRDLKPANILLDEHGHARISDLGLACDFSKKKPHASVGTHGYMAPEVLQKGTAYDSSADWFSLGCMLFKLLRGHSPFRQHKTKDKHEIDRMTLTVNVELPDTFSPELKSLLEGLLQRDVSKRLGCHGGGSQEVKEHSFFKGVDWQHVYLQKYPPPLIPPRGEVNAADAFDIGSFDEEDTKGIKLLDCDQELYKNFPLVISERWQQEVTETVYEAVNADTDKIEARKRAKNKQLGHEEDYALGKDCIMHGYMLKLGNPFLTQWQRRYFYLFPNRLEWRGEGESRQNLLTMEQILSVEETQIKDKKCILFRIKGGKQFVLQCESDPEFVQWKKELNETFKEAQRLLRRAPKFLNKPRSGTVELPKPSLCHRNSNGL

[11] = biological target: Ribosomal protein S6 kinase alpha-4 (Homo sapiens) (UniProt O75676); test: Selectivity interaction (Upstate Kinase Profiler service (Millipore)) EUB0000056c RPS6KA4; conditions: at 1 µM
[12] = biological target: STE20-like serine/threonine-protein kinase (Homo sapiens, UniProt Q9H2G2); test: Selectivity interaction (ActivX KiNativ screen (ex vivo kinase selectivity in human PBMCs)) EUB0001619a SLK; format: cell-based; conditions: PBMC, at 1 µM
[13] = biological target: T2, Serine/threonine-protein kinase DCLK1 (Homo sapiens) (UniProt O15075); test: Selectivity interaction (KinomeScan (DiscoverX)) EUB0001619a DCLK1; conditions: at 1 µM
T2 sequence (whole entry): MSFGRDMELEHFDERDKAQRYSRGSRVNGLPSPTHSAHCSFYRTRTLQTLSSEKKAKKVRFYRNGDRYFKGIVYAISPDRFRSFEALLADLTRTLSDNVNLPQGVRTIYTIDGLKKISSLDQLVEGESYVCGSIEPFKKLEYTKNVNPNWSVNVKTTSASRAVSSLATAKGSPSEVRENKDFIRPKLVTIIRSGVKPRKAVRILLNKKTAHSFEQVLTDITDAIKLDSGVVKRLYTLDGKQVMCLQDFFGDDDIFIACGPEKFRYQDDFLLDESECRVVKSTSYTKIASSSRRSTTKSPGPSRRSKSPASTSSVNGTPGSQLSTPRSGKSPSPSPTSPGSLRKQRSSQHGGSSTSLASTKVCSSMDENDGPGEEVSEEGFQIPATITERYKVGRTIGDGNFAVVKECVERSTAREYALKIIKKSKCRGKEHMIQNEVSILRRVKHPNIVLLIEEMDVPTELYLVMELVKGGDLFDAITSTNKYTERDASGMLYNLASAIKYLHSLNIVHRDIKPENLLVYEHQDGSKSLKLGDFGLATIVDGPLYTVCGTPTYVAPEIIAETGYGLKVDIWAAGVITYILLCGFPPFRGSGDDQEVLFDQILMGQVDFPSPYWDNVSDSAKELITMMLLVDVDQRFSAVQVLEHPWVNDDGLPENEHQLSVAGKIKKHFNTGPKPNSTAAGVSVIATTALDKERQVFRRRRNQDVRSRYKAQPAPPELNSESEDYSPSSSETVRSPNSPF

[14] = biological target: T3, Serine/threonine-protein kinase Sgk1 (Homo sapiens) (UniProt O00141); test: Selectivity interaction (KinomeScan (DiscoverX)) EUB0000607a SGK1; conditions: at 10 µM
T3 sequence (whole entry): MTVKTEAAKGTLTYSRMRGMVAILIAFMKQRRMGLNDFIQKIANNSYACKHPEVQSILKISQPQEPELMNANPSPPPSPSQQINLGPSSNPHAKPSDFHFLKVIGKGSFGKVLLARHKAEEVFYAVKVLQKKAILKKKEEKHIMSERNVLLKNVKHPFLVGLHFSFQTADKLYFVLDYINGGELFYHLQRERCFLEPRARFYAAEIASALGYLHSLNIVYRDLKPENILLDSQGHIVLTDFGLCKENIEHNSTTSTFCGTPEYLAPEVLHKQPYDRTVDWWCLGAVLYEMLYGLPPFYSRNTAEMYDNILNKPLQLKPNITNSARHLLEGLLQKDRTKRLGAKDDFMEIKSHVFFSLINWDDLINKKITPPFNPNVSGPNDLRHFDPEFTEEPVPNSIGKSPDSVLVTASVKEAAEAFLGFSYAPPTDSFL

[15] = biological target: Dual specificity protein kinase CLK1 (Homo sapiens, UniProt P49759); test: Selectivity interaction (KinomeScan (DiscoverX)) EUB0000666a CLK1; conditions: at 10 µM

Chain of STE20-like serine/threonine-protein kinase (Q9H2G2 whole entry, looked up): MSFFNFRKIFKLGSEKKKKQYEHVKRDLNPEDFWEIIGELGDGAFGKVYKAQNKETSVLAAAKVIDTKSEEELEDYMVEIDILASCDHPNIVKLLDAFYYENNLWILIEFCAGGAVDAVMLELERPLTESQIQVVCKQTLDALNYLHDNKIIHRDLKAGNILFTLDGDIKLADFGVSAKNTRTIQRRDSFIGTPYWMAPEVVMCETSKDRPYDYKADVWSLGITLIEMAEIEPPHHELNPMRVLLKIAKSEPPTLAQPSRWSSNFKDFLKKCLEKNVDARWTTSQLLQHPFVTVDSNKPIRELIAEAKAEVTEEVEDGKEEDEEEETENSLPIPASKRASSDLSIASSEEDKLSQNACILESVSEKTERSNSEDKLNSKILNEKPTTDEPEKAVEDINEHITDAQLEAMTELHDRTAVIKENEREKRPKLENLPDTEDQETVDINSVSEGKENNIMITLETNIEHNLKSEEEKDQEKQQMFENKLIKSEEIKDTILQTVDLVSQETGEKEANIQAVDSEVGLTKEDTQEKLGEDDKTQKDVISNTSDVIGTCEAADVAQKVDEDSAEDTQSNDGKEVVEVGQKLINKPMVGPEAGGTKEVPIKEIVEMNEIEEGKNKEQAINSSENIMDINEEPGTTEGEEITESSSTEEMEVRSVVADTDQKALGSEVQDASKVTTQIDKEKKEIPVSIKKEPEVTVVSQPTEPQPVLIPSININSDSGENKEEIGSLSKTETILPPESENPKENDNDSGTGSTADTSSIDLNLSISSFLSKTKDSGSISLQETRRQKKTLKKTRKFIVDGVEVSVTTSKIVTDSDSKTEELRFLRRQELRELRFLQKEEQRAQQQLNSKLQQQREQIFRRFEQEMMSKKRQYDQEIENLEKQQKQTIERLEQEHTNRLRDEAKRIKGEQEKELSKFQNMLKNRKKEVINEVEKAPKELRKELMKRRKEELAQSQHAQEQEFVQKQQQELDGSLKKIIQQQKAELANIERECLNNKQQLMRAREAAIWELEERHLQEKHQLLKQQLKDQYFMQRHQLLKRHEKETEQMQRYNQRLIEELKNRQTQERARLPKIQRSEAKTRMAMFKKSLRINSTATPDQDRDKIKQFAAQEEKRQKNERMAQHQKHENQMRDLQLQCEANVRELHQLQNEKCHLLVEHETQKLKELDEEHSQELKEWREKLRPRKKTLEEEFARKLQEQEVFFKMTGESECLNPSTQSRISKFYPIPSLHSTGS
Chain of Ribosomal protein S6 kinase alpha-4 (Homo sapiens) (O75676 whole entry, looked up): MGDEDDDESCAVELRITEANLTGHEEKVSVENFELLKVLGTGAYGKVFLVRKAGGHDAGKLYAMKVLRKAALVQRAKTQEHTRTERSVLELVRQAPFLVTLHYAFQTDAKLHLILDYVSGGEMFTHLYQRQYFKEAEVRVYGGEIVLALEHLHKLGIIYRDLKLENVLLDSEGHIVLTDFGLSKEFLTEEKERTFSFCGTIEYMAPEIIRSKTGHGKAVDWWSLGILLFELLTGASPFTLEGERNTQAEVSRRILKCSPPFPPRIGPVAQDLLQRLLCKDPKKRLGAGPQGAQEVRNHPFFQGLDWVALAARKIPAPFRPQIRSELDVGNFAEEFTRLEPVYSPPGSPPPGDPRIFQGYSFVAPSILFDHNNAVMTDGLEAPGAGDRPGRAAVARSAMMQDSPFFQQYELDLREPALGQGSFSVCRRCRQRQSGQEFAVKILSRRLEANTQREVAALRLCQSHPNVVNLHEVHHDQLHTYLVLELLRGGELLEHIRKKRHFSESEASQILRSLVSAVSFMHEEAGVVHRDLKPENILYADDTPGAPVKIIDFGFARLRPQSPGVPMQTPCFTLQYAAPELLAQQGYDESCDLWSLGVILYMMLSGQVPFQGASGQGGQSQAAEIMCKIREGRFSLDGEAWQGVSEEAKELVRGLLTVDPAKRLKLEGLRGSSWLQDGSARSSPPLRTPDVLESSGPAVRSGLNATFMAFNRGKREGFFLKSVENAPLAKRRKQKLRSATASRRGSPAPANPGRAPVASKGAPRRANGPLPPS
Chain of Proto-oncogene tyrosine-protein kinase receptor Ret (Homo sapiens), P07949 [S891A] (P07949 whole entry S891A): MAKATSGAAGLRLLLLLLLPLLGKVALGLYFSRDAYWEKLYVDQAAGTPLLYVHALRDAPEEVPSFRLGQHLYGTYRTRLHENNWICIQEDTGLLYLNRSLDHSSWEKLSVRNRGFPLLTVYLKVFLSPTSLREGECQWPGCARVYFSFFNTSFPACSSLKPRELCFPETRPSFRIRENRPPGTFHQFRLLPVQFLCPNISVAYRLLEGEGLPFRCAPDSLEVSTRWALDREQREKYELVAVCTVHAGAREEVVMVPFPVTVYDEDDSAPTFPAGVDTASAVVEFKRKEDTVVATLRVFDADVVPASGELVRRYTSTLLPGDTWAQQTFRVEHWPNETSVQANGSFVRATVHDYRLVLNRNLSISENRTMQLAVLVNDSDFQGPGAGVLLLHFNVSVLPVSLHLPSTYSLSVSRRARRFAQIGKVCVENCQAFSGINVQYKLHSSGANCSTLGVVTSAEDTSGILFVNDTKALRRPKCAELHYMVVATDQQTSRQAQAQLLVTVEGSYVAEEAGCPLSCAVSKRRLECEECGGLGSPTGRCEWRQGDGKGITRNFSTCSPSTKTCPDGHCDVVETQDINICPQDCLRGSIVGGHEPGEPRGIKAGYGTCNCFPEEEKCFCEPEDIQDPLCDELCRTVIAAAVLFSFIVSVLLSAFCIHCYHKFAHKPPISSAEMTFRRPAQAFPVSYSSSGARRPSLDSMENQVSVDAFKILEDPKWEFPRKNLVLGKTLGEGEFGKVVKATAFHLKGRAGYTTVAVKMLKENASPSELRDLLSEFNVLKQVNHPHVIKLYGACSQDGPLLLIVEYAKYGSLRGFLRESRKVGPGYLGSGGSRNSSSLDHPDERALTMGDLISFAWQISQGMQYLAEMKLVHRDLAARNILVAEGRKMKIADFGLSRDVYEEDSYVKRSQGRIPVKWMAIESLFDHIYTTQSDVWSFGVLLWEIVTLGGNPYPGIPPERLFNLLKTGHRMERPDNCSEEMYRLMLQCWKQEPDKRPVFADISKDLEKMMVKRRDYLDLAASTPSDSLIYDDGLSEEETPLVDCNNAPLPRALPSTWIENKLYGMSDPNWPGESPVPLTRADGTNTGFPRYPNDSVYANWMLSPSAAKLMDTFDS
Chain of Proto-oncogene tyrosine-protein kinase receptor Ret (P07949 whole entry): as the sequence (P07949 whole entry S891A) above, with A891S counted along it
Chain of Interferon-induced, double-stranded RNA-activated protein kinase (Homo sapiens) (P19525 whole entry): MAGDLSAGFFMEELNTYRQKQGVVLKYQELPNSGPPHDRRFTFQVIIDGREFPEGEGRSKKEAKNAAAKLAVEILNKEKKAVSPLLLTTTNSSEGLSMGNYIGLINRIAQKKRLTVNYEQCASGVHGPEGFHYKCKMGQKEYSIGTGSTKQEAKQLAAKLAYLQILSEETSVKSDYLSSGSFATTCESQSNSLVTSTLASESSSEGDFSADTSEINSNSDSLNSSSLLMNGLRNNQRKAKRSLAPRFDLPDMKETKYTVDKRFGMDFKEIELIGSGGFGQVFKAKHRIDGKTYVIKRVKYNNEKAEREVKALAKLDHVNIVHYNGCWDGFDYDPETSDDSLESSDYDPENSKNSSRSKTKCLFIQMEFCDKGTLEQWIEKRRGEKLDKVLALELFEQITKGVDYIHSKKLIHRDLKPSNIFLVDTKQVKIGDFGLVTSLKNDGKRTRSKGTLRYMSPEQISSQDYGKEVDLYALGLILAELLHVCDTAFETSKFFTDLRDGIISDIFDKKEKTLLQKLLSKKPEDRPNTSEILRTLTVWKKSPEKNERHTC
Chain of Proto-oncogene tyrosine-protein kinase receptor Ret (Homo sapiens), P07949 [Y791F] (P07949 whole entry Y791F): as the sequence (P07949 whole entry S891A) above, with Y791F, A891S counted along it
Chain of Serine/threonine-protein kinase/endoribonuclease IRE1 (Homo sapiens) (O75460 19-977 limits assumed): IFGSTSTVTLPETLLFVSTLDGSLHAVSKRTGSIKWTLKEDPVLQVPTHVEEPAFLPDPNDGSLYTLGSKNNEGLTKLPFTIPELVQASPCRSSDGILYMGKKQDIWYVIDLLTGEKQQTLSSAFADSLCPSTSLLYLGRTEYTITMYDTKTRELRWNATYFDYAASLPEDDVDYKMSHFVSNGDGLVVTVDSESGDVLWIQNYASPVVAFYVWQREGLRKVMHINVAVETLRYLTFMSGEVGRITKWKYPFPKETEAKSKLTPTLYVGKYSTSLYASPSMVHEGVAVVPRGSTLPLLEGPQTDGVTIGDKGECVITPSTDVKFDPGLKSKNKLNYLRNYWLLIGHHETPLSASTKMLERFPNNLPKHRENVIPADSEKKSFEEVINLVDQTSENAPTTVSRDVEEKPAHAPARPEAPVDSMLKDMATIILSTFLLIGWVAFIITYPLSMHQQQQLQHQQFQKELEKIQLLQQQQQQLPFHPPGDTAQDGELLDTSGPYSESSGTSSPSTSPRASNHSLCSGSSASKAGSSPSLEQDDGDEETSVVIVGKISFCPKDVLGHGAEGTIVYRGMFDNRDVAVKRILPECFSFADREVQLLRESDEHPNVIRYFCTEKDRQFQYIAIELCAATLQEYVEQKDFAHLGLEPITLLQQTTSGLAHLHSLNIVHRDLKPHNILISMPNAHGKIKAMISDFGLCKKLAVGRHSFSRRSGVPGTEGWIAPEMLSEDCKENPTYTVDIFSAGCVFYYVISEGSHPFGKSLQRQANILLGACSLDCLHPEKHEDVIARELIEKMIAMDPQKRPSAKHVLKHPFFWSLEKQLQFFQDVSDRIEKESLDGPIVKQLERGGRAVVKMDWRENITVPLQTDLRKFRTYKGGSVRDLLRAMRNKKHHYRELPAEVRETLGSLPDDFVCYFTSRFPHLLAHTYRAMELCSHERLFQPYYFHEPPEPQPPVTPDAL
Chain of Proto-oncogene tyrosine-protein kinase receptor Ret (Homo sapiens), P07949 [V804L] (P07949 whole entry V804L): as the sequence (P07949 whole entry S891A) above, with V804L, A891S counted along it

- % of control [1]: 3.2%
- % of control [2]: 6.92%
- % of control [3]: 2.48%
- % of control [4]: 6.91%
- % of control [5]: 12%
Compound: Cn1cc(-n2cnc3c(NCc4nc5cc(Cl)c(Cl)cc5[nH]4)nc(N4CCOCC4)nc32)cn1

- % of control [6]: 100%
- % of control [7]: 100%
Compound: CCN(CC)CCCCNc1ncc2cc(-c3cc(OC)cc(OC)c3)c(NC(=O)NC(C)(C)C)nc2n1

Compound: COc1cc(N(C)c2ccnc3ccc(C(F)(F)F)cc23)cc(OC)c1OC
- % binding [8]: 70%

Compound: Nc1cnc(N2CCc3cc(S(=O)(=O)Nc4c(F)cc(Cl)cc4F)cc(N4CCCC4=O)c32)nc1 [TP-020n]
- % of control [9]: 41%

- % of control ([10]; at 1 µM): 94%
- % of control ([10]; at 5 µM): 95%
Compound: C=CC(=O)Nc1cccc(C(=O)Nc2ccc(Nc3cc(-c4[nH]c(SC)nc4C)ccn3)cc2)c1

- % of inhibition [11]: -19%
Compound: Cc1ccc(-c2ccc3c(ccc4sc5c(c43)NC[C@@H](C)NC5=O)n2)cn1

Compound: N#Cc1cccc(-c2c[nH]c3ncnc(N4CCOCC4)c23)c1
- % of inhibition [12]: 61%
- % of control [13]: 100%

Compound: CNC(=O)Nc1ccc(-c2nc(N3CC4CCC(C3)O4)c3cnn(C4CCC5(CC4)OCCO5)c3n2)cc1
- % of control [14]: 100%

Compound: O=C(NOC[C@H](O)CO)c1ccc(F)c(F)c1Nc1ccc(I)cc1F
- % of control [15]: 95%
